Laboratory results published in PMC6382874, “Succinylation-dependent mitochondrial translocation of PKM2 promotes cell survival in response to nutritional stress” (Cell Death & Disease, 2019).

Tests used:
PKM2 = PKM2 (Homo sapiens, UniProt P14618); assay: binding to PKM2 measured by MicroCal iTC200; design: His-tag (N); made in house; host or cells: Escherichia coli BL21
Text: We tested modifications of target compounds for PKM2 inhibitory activity.
(§1) Fig. 5 Identification and characterization of PKM2 inhibitors. a PKM2 inhibitors. […] It prints only the data set name 'Data: pkm2_NDH', so the substance label is left empty. / Panel b, N: small print, 0.941 ±0.0712, digits uncertain / Panel b, K: small print, 8.63E4 ±3.63E4, the digits 8, 6 and 3 are uncertain / Panel b, ΔH: small print, -5962 ±675.9, the digits 5, 9 and 6 are uncertain / Panel b, ΔS: small print, 2.59, the digits 5 and 9 are uncertain
Human cDNA for PKM2, PKM1, and VDAC3 were separately cloned into a pET28a (+) and pGEX-4T-1 vector with an N-terminal His-tag and N-terminal GST-tag and purified from the Escherichia coli strain BL21 (Invitrogen) using Ni–agarose beads and GST agarose beads (Qiagen) as described previously. PKL was purchased from Sino Biological Inc. in China.

[1] = test system: PKM2 knockdown HCT116 cells; assay: annexin v stain apoptosis assay in PKM2 knockdown cells; type: cell-based, human; conditions: 20 µM, 12 h
Text: as §1
We assessed the anti-tumor effects of compound 8 by evaluation of cancer cell viability. Compound 8 reduced cell viability with an IC50 of about 5 µM in MTT reduction assays in HCT116, MCF7, and H1299 cells (Table 2). […] To determine whether cancer cell death brought about by compound 8 is PKM2 dependent, PKM2 was knocked down in HCT116 cells using two different shRNA sequences that specifically targeted exon 10 without interfering with PKM1 expression. Compound 8 is an inhibitor which causes a loss of function of PKM2. If PKM2 is a specially targeted by compound 8, its knockdown should render cells more vulnerable to compound 8-mediated PKM2 inhibition since shRNA and compound 8 work synergistically by reducing the intracellular drug target concentration.
Two shRNAs with PKM2 specific exon 10 sequence knockdown were used (5'-[…]-3'; 5'-[…]-3'), and a shRNA with no effect on PKM2 levels was employed as a control (5'-[…]-3). […]

PKM2-VDAC3 interaction = molecular target: T1, PKM2-VDAC3 interaction (Homo sapiens, UniProt P14618); assay: PKM2-VDAC3 interaction, stag pull down in HCT116 cells; type: cell-based; conditions: 20 µM, 8 h
T1 construct: expressed in transfected cells; host or cells: HCT116
Method: (§2) Fig. 6 Compound 8 blocks PKM2 mitochondrial translocation under nutritional stress and inhibits tumor growth in vivo. a Compound 8 blocks glucose starvation induced PKM2 mitochondrial translocation. Isolation of mitochondria and immunoblot of PKM2, tubulin and Tom 40 were carried out with or without compound 8 treatment. b Compound 8 disrupts interaction of PKM2 and VDAC3. HCT116 cells were transfected with HA-tagged PKM2, cells were harvested and subjected to stag pull down after 8 h 20 µM compound 8 treatment. c Compound 8 induces VDAC3 for degradation. cells were harvested and evaluated VDAC3 protein levels after 8 h 10 or 20 µM compound 8 treatment. d, e Compound 8 caused a decrease in the rate of NADH oxidation. After 8 h of treatment with 20 µM compound 8, HCT116 cells mitochondria were isolated for NADH oxidation assays. NAD/NADH ratios in HCT116 cell lysates were evaluated by LC–MS. f Compound 8 inhibited ATP production in HCT116 cells. g The tumor volume (n = 7) of HCT116 xenografts from mice with intraperitoneal injection of compound 8 and vehicle control
About 2.5 mg whole cellular extracts were prepared in 700 μl RIPA buffer (50 mM Tris-HCl, pH 8.0, 150 mM NaCl, 1.5 mM MgCl2, 0.1% sodium dodecyl sulfate (SDS), 0.5% deoxycholate, 0.5% NP-40, 1 mM phenylmethylsulfonyl fluoride (PMSF), 1× protease inhibitor cocktail (Roche)). […]

[2] = test system: PKM2 mitochondrial translocation; assay: PKM2 mitochondrial translocation (fractionation, western blot) in HCT116 cells; type: cell-based, human; conditions: 20 μM, glucose starvation, HCT116
Method: as §2
HCT116 cells were harvested and washed two times with cold PBS. Cells were then homogenized in a buffer (220 mM mannitol, 70 mM sucrose, 2 mM EGTA, 5 mM MOPS-Tris pH 7.4, 2 mM Taurine, 0.2% BSA). The homogenate was spun for 5 min at 800g.The supernatant containing the cytoplasmic and mitochondrial fractions were transferred to a fresh tube and spun for 5 min at 12,000g. The pellet contained the mitochondrial fraction and the supernatant contained the cytoplasmic fraction.
Cells were lysed in buffer containing 50 mM Tris pH8.0, 2 mM EDTA, 150 mM NaCl, 0.5% Nonidet P-40, 10% glycerol and protease inhibitor PMSF. Western blot analysis was carried out based on standard methods. The following commercial antibodies were used as probes: anti-Flag antibody (Sigma, F3165), anti-HA antibody (Sigma, H3663), anti-α-Tubulin (EasyBio, BE0026–100), anti-PKM2 (RuiYingBio, RLT3777), anti-TOM 40 (Santa Cruz sc-365467), anti-succinyllysine antibody (PTM BIO PTM-901), anti-GAPDH (SanJian).

PKM2, sequence (P14618 whole entry): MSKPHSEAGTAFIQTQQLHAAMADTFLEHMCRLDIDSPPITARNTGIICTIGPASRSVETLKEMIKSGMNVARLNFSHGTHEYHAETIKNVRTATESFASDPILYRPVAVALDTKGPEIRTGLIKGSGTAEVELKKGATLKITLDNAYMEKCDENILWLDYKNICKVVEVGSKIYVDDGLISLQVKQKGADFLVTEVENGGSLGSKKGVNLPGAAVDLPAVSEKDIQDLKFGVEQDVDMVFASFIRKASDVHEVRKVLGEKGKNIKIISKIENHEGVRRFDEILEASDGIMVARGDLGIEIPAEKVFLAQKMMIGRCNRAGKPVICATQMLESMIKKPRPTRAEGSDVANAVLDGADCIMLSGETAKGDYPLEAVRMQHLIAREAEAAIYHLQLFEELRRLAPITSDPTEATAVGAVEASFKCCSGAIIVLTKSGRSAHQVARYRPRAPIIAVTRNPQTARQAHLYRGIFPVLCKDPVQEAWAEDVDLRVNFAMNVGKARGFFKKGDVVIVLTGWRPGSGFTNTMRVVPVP
T1 sequence (P14618 whole entry): as above

CCCN(CCC)P(N)(=O)OCC1=CC(=O)c2ccccc2C1=O (stereo not shown) [Compound 8]
Kd (PKM2): ~11 µM
apoptosis of PKM2 knockdown cells [1]: increased the apoptosis of PKM2 knockdown cells
interaction of PKM2 with VDAC3 (PKM2-VDAC3 interaction): abolished its interaction with VDAC3
PKM2 mitochondrial translocation [2]: can restrain PKM2 mitochondrial translocation
